Experimental findings from patent publication US5336783A, “Calpain inhibitor cystamidin A and its production” (The Kitasato Institute, priority 1992, dated 1994) are described below.

The IC50 is the concentration that inhibits the measured activity by half. By LD50 is commonly meant the dose expected to kill half of the subjects tested. A higher LD50 goes with a less toxic substance.

One series has as its system calpain. The experiment in a line: calpain inhibition using casein as substrate (method by Saito et al.). In kind it is biochemical.
The test system of series [1] is various kinds of bacteria, yeast and fungi. The experiment in a line: antimicrobial activity (paper disk method). In kind it is cell-based. To be noted: 100 μg/disk.
In another series the test system is B-16 melanoma cells. The experiment in a line: activity against B-16 melanoma cells in vitro. In kind it is cell-based. To be noted: Mus musculus, B16.
Series [2] is described as follows: acute toxicity LD50 (ip) in mice. To be noted: mouse, in vivo.
A further series can be described thus: solubility in solvent. Particulars: water, methanol, acetone, chloroform and benzene. In kind it is physicochemical.

Molecules are shown by their SMILES. ≈ marks a conversion by molar mass, not a printed value.

For the molecule `NC(=O)CCc1cc[nH]c1` [cystamidin A], the “IC50 (50% inhibition) against calpain” value with calpain is 0.20 µg/mL (≈ 1.45 µM). The antimicrobial activity result in series [1] is recorded as “no antimicrobial activity”. Also, the IC50 in the series with B-16 melanoma cells is > 25 µg/mL. Also, the LD50 in series [2] was > 200 mg/kg. Besides, the Solubility in solvent entry in “solubility in solvent” was “soluble in water, methanol, acetone, chloroform and benzene”.
